# Assays:
# [1] = rat, in vivo, po, 20 mg/kg
# Protocol: The single oral dose of reference Olmesartan Medoxomil was 20 mg/kg, and that of nanostructured Olmesartan Medoxomil formulation was 75.8 mg/kg which corresponds to 20 mg/kg active agent. Both test substances were administered via gastric tube in a dosing volume of 5 ml/kg. The vehicle of the test items was sterile 0.9% NaCl solution supplemented with 0.25% methylcellulose and the suspension was kept homogenous by continuous stirring during treatment in order to minimize the error resulting from the sedimentation.
# Male Wistar rats (purchased from Laboratory Animal Center, University of Szeged) were maintained on a standard pellet rodent diet (Bioplan Ltd, Isaszeg, Hungary) under temperature and light-controlled conditions with tap water available ad libitum. The acclimatization period was at least 4 days. Rats were randomized into groups of 6 and each group was used for blood sampling at different time period after Olmesartan Medoxomil treatment. All animals were fasting for 16 hours before oral treatment. […]
# An aliquot of 200 μl serum was combined with 20 μl of internal standard working solution and 1.2 ml methanol for protein precipitation. […] Serum Olmesartan concentrations were determined using a standard curve set up from Olmesartan prepared from Olmesartan Medoxomil by enzymatic hydrolysis. […]
# [2] = cited from earlier work
# [3] = cited from earlier work; remark: listed apart in the source
# [4] = cited from earlier work; remark: listed apart in the source
# [5] = rats; cited from earlier work
Area under the serum concentration curve between 15 and 360 min (AUC15-360 min) [1] [µg·min/mL],tmax [1] [h],Compound,solubility in methanol ([2]; methanol),solubility in water ([2]; water),absolute bioavailability ([3]; in vivo),effect of food on bioavailability ([3]; in vivo),renal clearance ([3]; in vivo) [L/h],terminal elimination half-life ([3]; in vivo),total plasma clearance ([3]; in vivo) [L/h],accumulation in plasma ([3]; once-daily dosing),bound to plasma proteins [4] [%],crossing of the blood-brain barrier [5],distribution to milk [5],passage across the placental barrier [5]
382.5,2,"CCCc1nc(C(C)(C)O)c(C(=O)OCc2oc(=O)oc2C)n1Cc1ccc(-c2ccccc2-c2nnn[nH]2)cc1 [Olmesartan Medoxomil, 2,3-dihydroxy-2-butenyl 4-(1-hydroxy-1-methylethyl)-2-propyl-1-[p-(o-1H-tetrazol-5-ylphenyl)benzyl]imidazole-5-carboxylate, cyclic 2,3-carbonate]",sparingly soluble,practically insoluble,,,,,,,,,,
,,CCCc1nc(C(C)(C)O)c(C(=O)O)n1Cc1ccc(-c2ccccc2-c2nnn[nH]2)cc1 [Olmesartan],,,approximately 26%,Food does not affect the bioavailability,0.6,approximately 13 hours,1.3,no accumulation in plasma,99,"crossed the blood-brain barrier poorly, if at all",distributed to milk at low levels,passed across the placental barrier

# From patent US20120148637A1, “NANOPARTICULATE OLMESARTAN MEDOXOMIL COMPOSITIONS, PROCESS FOR THE PREPARATION THEREOF AND PHARMACEUTICAL COMPOSITIONS CONTAINING THEM” (priority 2009, published 2012)
